Calls of active or inactive are those of the source. No cut-off for these calls is given here.
Experiments:
PLC-PRF-5 = assay: Antiproliferative activity against human Alex cells incubated for 5 days by XTT assay; format: functional, cell-based; conditions: time 5.0 day
[1] = Microsomal stability in mouse liver microsomes assessed as half life at 100 uM pre-incubated for 5 mins with NADPH- regenerating system followed by liver microsomal addition and measured upto 120 mins by HPLC analysis; format: ADME, Microsome; conditions: time <=125 min
Hep 3B2 [2] = assay: Induction of apoptosis in human Hep3B cells assessed as down regulation of cyclin B1 expression at 200 nM measured upto 5 days by Western blot analysis; format: functional, cell-based; conditions: time day <=5
KM12 = assay: Antiproliferative activity against human KM12 cells; format: functional, cell-based
COLO 205 = assay: Antiproliferative activity against human COLO 205 cells; format: functional, cell-based
HCT-15 [3] = assay: Antiproliferative activity against human HCT-15 cells; format: functional, cell-based
Hep 3B2 [4] = assay: Antiproliferative activity against human Hep3B cells incubated for 5 days by XTT assay; format: functional, cell-based; conditions: time 5.0 day
[5] = molecular target: T1, Dual specificity protein kinase TTK (Homo sapiens, UniProt P33981); assay: Inhibition of recombinant human full length N-terminal GST-fused MPS1 (1 to 857 residues) using histone H3 as substrate by TR-FRET assay
T1 sequence (P33981 whole entry): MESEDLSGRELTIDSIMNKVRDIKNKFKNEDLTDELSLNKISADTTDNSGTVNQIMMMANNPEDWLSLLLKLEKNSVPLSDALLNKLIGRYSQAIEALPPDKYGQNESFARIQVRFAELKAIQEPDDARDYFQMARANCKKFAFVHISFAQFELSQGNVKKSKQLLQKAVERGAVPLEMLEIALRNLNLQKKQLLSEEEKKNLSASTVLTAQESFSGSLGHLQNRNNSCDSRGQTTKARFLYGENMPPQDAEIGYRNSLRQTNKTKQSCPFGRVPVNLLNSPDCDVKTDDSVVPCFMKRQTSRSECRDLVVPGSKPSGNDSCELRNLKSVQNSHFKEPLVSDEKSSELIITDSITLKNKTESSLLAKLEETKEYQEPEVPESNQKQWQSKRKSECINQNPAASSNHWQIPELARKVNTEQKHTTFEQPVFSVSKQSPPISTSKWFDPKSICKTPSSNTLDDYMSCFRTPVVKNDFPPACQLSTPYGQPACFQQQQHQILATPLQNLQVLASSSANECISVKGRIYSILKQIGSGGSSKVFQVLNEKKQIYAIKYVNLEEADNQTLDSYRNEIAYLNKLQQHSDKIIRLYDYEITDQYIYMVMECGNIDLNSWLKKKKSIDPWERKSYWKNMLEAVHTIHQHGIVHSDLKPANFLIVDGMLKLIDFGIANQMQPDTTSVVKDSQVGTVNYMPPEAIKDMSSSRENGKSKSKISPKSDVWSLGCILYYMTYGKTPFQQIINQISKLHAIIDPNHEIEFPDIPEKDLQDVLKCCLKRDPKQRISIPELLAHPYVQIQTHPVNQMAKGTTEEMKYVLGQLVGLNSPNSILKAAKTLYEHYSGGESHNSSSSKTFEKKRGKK

Huh-7 = assay: Antiproliferative activity against human Huh-7 cells incubated for 5 days by XTT assay; format: functional, cell-based; conditions: time 5.0 day
Hep 3B2 [6] = assay: Induction of apoptosis in human Hep3B cells assessed as increase in cleaved PARP level at 200 nM measured upto 5 days by Western blot analysis; format: functional, cell-based; conditions: time day <=5
HCT-15 [7] = assay: Cytotoxicity against human HCT-15 cells assessed as reduction in cell viability incubated for 5 days by XTT assay; format: functional, cell-based; conditions: time 5.0 day
[8] = molecular target: T2, Dual specificity protein kinase TTK (Homo sapiens) (UniProt P33981); assay: Displacement of tracer K9 from NanoLuc-fused MPS1 (unknown origin) expressed in HEK293T cells at 10 fold IC50 preincubated for 2 hrs followed by compound washout by NanoBRET assay; format: cell-based
T2 sequence (whole entry): T1 sequence (P33981 whole entry)

HLF = assay: Antiproliferative activity against human HLF cells incubated for 5 days by XTT assay; format: functional, cell-based; conditions: time 5.0 day
SNU-387 [9] = assay: Induction of apoptosis in human SNU-387 cells assessed as increase in p21 expression level at 200 nM measured upto 5 days by Western blot analysis; format: functional, cell-based; conditions: time day <=5
HCT-116 [10] = assay: Induction of apoptosis in human HCT-116 cells assessed as increase in cleaved PARP level measured for 3 days by Western blot analysis; format: functional, cell-based; conditions: time 3.0 day
[11] = molecular target: T2, Dual specificity protein kinase TTK (Homo sapiens); assay: Covalent inhibition of human full length N-terminal GST-fused MPS1 (1 to 857 residues) assessed as Kinact/Ki ratio by TR-FRET assay
Hep 3B2 [12] = assay: Induction of apoptosis in human Hep3B cells assessed as increase in cleaved caspase-3 level at 200 nM measured upto 5 days by Western blot analysis; format: functional, cell-based; conditions: time day <=5
[13] = molecular target: Fibroblast growth factor receptor 4 (Homo sapiens, UniProt P22455); assay: Inhibition of human recombinant FGFR4 expressed in Sf9 insect cells using poly[Glu:Tyr] 4:1 as substrate in presence of [33P]-ATP by radiometric hotspot kinetic assay
HCT-116 [14] = assay: Induction of apoptosis in human HCT-116 cells assessed as upregulation of p53 expression measured after 3 days by Western blot analysis; format: functional, cell-based; conditions: time 3.0 day
[15] = molecular target: T3, Serine/threonine-protein kinase 17B (Homo sapiens) (UniProt O94768); conditions: dose 10.0 µM
T3 sequence (whole entry): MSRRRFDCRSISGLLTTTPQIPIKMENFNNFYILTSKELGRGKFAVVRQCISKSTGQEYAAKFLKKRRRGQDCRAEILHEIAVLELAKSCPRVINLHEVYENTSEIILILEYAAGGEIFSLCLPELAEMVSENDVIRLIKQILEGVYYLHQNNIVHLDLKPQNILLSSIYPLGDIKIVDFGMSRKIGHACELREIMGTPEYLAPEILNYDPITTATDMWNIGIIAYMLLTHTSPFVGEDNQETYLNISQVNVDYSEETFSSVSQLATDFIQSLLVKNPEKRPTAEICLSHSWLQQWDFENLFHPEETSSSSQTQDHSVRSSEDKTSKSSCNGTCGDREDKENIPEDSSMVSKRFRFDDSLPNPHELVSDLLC

[16] = molecular target: T1, Dual specificity protein kinase TTK; assay: Inhibition of recombinant human full length N-terminal GST-fused MPS1 (1 to 857 residues) using histone H3 as substrate measured after 2 hrs in presence of DTT by TR-FRET assay
Hep 3B2 [17] = assay: Synergistic antiproliferative activity against human Hep3B cells at 200 nM measured after 5 days in presence of navitoclax by crystal violet staining based assay; format: functional, cell-based; conditions: time 5.0 day
[18] = molecular target: T2, Dual specificity protein kinase TTK (Homo sapiens); assay: Covalent inhibition of human full length N-terminal GST-fused MPS1 (1 to 857 residues) assessed as Kinact by TR-FRET assay
SNU-387 [19] = assay: Induction of apoptosis in human SNU-387 cells assessed as down regulation of cyclin B1 expression at 200 nM measured upto 5 days by Western blot analysis; format: functional, cell-based; conditions: time day <=5
HCT-116 [20] = assay: Induction of apoptosis in human HCT-116 cells assessed as down regulation of cyclin B1 expression measured after 3 days by Western blot analysis; format: functional, cell-based; conditions: time 3.0 day
HuH-6 = assay: Antiproliferative activity against human HuH-6 cells incubated for 5 days by XTT assay; format: functional, cell-based; conditions: time 5.0 day
SNU-387 [21] = assay: Induction of cell senescence in human SNU-387 cells at 200 uM measured up to 5 days by SA-beta-gal-staining based assay; format: functional; conditions: time day <=5

Sequence of Fibroblast growth factor receptor 4 (P22455 whole entry): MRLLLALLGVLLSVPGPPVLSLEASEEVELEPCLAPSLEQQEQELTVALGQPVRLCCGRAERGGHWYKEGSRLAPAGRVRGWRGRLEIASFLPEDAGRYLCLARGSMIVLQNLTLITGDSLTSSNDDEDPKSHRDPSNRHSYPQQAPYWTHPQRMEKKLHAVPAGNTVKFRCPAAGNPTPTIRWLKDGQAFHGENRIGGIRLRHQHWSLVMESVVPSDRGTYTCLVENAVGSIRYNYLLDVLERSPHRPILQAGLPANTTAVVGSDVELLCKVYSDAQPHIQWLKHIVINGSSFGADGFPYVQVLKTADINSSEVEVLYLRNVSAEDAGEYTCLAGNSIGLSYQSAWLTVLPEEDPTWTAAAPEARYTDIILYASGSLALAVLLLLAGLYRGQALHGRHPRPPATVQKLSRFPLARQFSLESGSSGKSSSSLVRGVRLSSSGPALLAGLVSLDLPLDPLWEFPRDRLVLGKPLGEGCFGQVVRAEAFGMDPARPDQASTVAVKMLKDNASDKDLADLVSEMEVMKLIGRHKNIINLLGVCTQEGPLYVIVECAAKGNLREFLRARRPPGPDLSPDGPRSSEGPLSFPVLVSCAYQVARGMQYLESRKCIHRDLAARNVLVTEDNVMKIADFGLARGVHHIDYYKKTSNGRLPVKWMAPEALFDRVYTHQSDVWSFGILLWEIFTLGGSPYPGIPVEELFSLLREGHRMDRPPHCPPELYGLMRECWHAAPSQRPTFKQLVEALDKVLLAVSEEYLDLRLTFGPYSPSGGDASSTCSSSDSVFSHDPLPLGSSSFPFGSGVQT

In the case of `C=CC(=O)Nc1cc(N2CCN(C)CC2)ccc1Nc1ncc2c(n1)-n1ccc(C(=O)Nc3c(CC)cccc3CC)c1CC2`, the Activity (PLC-PRF-5) is reported as “Active”, the half-life at 100 µM [1] is reported as 1 h and the Activity (Hep 3B2 [2]) is reported as “Active”. The Activity (KM12) was “Active”, the Activity (COLO 205) was “Active” and the Activity (HCT-15 [3]) was “Active”. For the same molecule, the Activity (Hep 3B2 [4]) was “Active”, the IC50 [5] was 0.013 µM and the Ki [5] was 0.00083 µM. For the same molecule, the Activity (Huh-7) was “Active”, the Activity (Hep 3B2 [6]) was “Active” and the Activity (HCT-15 [7]) was “Active”. For the same molecule, the Activity [8] was 50%, the Activity (HLF) was “Active” and the Activity (SNU-387 [9]) was “Active”. For the same molecule, the Activity (HCT-116 [10]) was “Active”, the Ratio [11] was 1.71 10^4/M/s and the Activity (Hep 3B2 [12]) was “Active”. For the same molecule, the IC50 [13] was 2.75 µM, the Activity (HCT-116 [14]) was “Active” and the ΔTm [15] was 11.9 °C. The IC50 [16] was 0.02 µM, the Activity (Hep 3B2 [17]) was “Active” and the Kinact [18] was 0.000242 s⁻¹. For the same molecule, the Activity (SNU-387 [19]) was “Active”, the Activity (HCT-116 [20]) was “Active” and the Activity (HuH-6) was “Active”. For the same molecule, the Activity (SNU-387 [21]) was “Active”.

Source: ChEMBL document CHEMBL5038669, “Development of the First Covalent Monopolar Spindle Kinase 1 (MPS1/TTK) Inhibitor” (J Med Chem, 2022)
